# From the SangsterLogP compilation
# Assay: method code SF-AS, from DOI: 10.1016/0223-5234(92)90004-k
row,SMILES,logP
1,COc1cc(SC)ccc1-c1cn2cccnc2n1,2.44
2,COc1ccc(-c2nc3ncccc3[nH]2)c(OC)c1,2.56
3,COc1cc(OS(C)(=O)=O)ccc1-c1cn2cccnc2n1,1.05
4,COc1cc(S(C)=O)ccc1-c1nc2ncc(N)cc2[nH]1 (stereo not given),0.33
5,COc1ccc(-c2cn3cccnc3n2)c(OC)c1,1.94
6,COc1cc(C(N)=O)ccc1-c1cn2cccnc2n1,0.7
7,COc1ccc(-c2cn3cc(N)cnc3n2)c(OC)c1,1.68
8,COc1cc(NS(C)(=O)=O)ccc1-c1cn2cccnc2n1,0.72
9,COc1ccc(-c2nc3ncc(N)cc3[nH]2)c(OC)c1,1.62
10,COc1cc(C(N)=O)ccc1-c1nc2cnccc2[nH]1,1.18
